{"source": "patent US10669287B2", "about": "“Curcumin-boron complex and pharmaceutical containing same” (JAPAN SCIENCE AND TECHNOLOGY AGENCY, priority 2016, dated 2020)", "key": {"[1]": {"assay": "Conversion of N-benzoyl-Met under different glycerol concentrations, Test Example 8", "conditions": "compound 2 μM, N-benzoyl-Met 2 mM, glycerol-methanol 0, 10, 30, or 50% glycerol, 780 nm, room temperature", "procedure": "(§1) To a glycerol-methanol mixed solvent (glycerol: 0, 10, 30, or 50%), furfuryl alcohol or N-benzoyl-Met (2 mM in each case) and the compound E (2 μM) were added, and the mixture was subjected to light irradiation (wavelength: 780 nm) at room temperature, and the concentration of furfuryl alcohol or N-benzoyl-Met was quantified by using a UV absorptiometer with LC/MS 10 minutes, 20 minutes, and 30 minutes after the initiation of light irradiation."}, "[2]": {"assay": "Maximum wavelength λmax of photocatalysts", "type": "physicochemical", "conditions": "Table 2"}, "PC 12 cells": {"system": "PC 12 cells", "assay": "Cytotoxicity under light irradiation, WST-8 cell viability, Test Example 2", "type": "cell-based, rat", "conditions": "LED 660 nm, 10 mW, 5 minutes, then 48 hours", "method": "A culture medium for rat adrenal medulla-derived pheochromocytoma PC 12 cells (purchased from RIKEN, Japan) seeded on a poly-D-lysine-coated 96-well plate was replaced with 75 μL of a Dulbecco's modified Eagle's medium containing 0.1% horse serum, and the culture was incubated in a 5% CO2 atmosphere at 37° C. for 1 day, and 25 μL of a phosphate buffer saline (pH 7.4) containing a inventive compound was then added thereto. Thereafter, the mixed solution was incubated under LED irradiation (wavelength: 660 nm, 10 mW) (without light irradiation for dark) at 37° C. for 5 minutes. Further, the cell culture plate containing the reaction solution was incubated in a 5% CO2 atmosphere at 37° C. for 48 hours. Finally, the Cell Count Reagent SF (10 μL: purchased from NACALAI TESQUE, INC.) containing WST-8 was added, and the culture was incubated in a 5% CO2 atmosphere at 37° C. for 3 hours, and thereafter the cell viability was determined from the absorbance at 450 nm (reference wavelength: 655 nm)."}, "[3]": {"assay": "Conversion of furfuryl alcohol under different glycerol concentrations, Test Example 8", "conditions": "compound 2 μM, furfuryl alcohol 2 mM, glycerol-methanol 0, 10, 30, or 50% glycerol, 780 nm, room temperature", "procedure": "as §1"}, "[4]": {"assay": "Stability of catalyst in neutral phosphate buffer without or under light irradiation (HPLC), Test Example 5", "type": "physicochemical", "conditions": "under light irradiation (660 nm)", "procedure": "A neutral phosphate buffer containing a catalyst was incubated without light irradiation or under light irradiation (660 nm), and thereafter ethanol containing benzyl alcohol (as an internal standard) was added thereto, and analysis was performed by using HPLC."}, "somatostatin (Sst)": {"biological_target": "T1, somatostatin (Sst) (Homo sapiens, UniProt P61278)", "T1 construct": "angiotensin-IV (AT4), Met-enkephalin (ME), or somatostatin (Sst) (20 μM in each case)", "assay": "Aβ selectivity of oxygenation, Test Example 9", "type": "biochemical", "conditions": "peptide 20 μM, catalyst 5 μM, 780 nm (7 mW), 37° C., 30 minutes", "procedure": "(§2) Aβ1-42 isopeptide (concentration: 250 μM in 0.1% aqueous solution of trifluoroacetic acid), angiotensin IV (200 μM aqueous solution), Met-enkephalin (200 μM aqueous solution), and somatostatin (200 μM aqueous solution) were added to a phosphate buffer or phosphate buffer saline (pH 7.4) (with 0.1 M aqueous solution of sodium hydroxide, as necessary) so that a final peptide concentration of 20 μM or 40 μM (pH 7.4) was reached. Before being subjected to oxygenation reaction, the Aβ1-42 solution was incubated at 37° C. for 1 to 3 hours. The phosphate buffer containing 40 μM of Aβ was diluted with a Dulbecco's modified Eagle's medium (DMEM, Life Technologies) containing 0.1% horse serum and buffered with 25 mM of 4-(2-hydroxyethyl)-1-piperazineethanesulfonic acid (HEPES).\n(§3) Solutions of the compounds with a final concentration of 2 μM were used for evaluation of oxygenation of Aβ1-42. Solutions of the compounds with a final concentration of 5 μM were used for evaluation of peptide selectivity. […] A control group without light irradiation was additionally prepared. Reaction was analyzed through monitor analysis with a MALDI-TOF MS. Degree of oxygenation was determined as a ratio: degree of oxygenation (%)=(total of MS intensities for n[O] adducts)/(MS intensity for native+total of MS intensities for n[O] adducts)×100. Aliquots of each reaction solution were desalted with a ZipTip U-C18 (Merck Millipore), as necessary, before mass spectrometry."}, "angiotensin-IV (AT4)": {"biological_target": "T2, angiotensin-IV (AT4) (Homo sapiens, UniProt P01019)", "T2 construct": "angiotensin-IV (AT4), Met-enkephalin (ME), or somatostatin (Sst) (20 μM in each case)", "assay": "Aβ selectivity of oxygenation, Test Example 9", "type": "biochemical", "conditions": "peptide 20 μM, catalyst 5 μM, 780 nm (7 mW), 37° C., 30 minutes", "procedure": "as §2, §3"}, "Aβ peptide": {"biological_target": "T3, Aβ peptide (Homo sapiens, UniProt P05067)", "T3 construct": "Aβ1-42 isopeptide (concentration: 250 μM in 0.1% aqueous solution of trifluoroacetic acid)", "T3 sequence (P05067 672-713)": "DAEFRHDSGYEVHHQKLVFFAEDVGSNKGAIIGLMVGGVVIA", "assay": "Aβ selectivity of oxygenation, Test Example 9", "type": "biochemical", "conditions": "peptide 20 μM, catalyst 5 μM (25 mol %), 780 nm (7 mW), 37° C., 30 minutes", "procedure": "as §2, §3"}, "Met-enkephalin (ME)": {"biological_target": "T4, Met-enkephalin (ME) (Homo sapiens, UniProt P01210)", "T4 construct": "angiotensin-IV (AT4), Met-enkephalin (ME), or somatostatin (Sst) (20 μM in each case)", "assay": "Aβ selectivity of oxygenation, Test Example 9", "type": "biochemical", "conditions": "peptide 20 μM, catalyst 5 μM, 780 nm (7 mW), 37° C., 30 minutes", "procedure": "as §2, §3"}, "Aβ1-42 [5]": {"biological_target": "T5, Aβ1-42 (Homo sapiens, UniProt P05067)", "T5 construct": "phosphate buffer (pH 7.4)/cell culture solution (containing 0.1% horse serum) (1:3) containing Aβ1-42 (10 μM)", "T5 sequence (P05067 672-713)": "as above", "assay": "In vitro oxygenation experiment using Aβ1-42 as a substrate (MALDI-TOF MS), Test Example 1", "type": "biochemical", "conditions": "test compound 1 μM, Aβ1-42 10 μM, LED irradiation at both 660 nm and 730 nm, 37° C.", "procedure": "An in vitro oxygenation experiment using Aβ1-42 as a substrate was conducted to confirm that each of the inventive compounds actually have Aβ oxygenation activity. A test compound (1 μM in each case) was added to phosphate buffer (pH 7.4)/cell culture solution (containing 0.1% horse serum) (1:3) containing Aβ1-42 (10 μM), and incubated under LED irradiation (wavelength: 660 nm, 730 nm) at 37° C., and then the reaction was tracked by using a mass spectrometer (MALDI-TOF MS). The native Aβ1-42 and the Na^+ adduct were mainly observed before light irradiation. After light irradiation, an ion peak indicating the presence of the oxygenated form was observed over time (FIG. 1, FIG. 2)."}, "Aβ1-42 [6]": {"biological_target": "T5, Aβ1-42", "assay": "Oxygenation under mouse skin, Test Example 7", "type": "in vivo", "conditions": "microtube with Aβ1-42 20 μM aggregated 3 hours, implanted in back skin, LED 780 nm, 30 minutes", "procedure": "A microtube containing a phosphate buffer containing Aβ1-42 (20 μM, aggregated in advance for 3 hours) and the compound E or a compound 3 [9-(6-bromo-3-methyl-1,3-benzotriazol-3-ium-2-yl)-julolidine] was implanted in the back skin of a wild mouse, and light irradiation with an LED lamp was performed from the outside of the mouse body at a wavelength of 780 nm for 30 minutes (FIG. 10). As a control experiment, another microtube containing the same components (Aβ1-42 (20 μM, aggregated in advance for 3 hours) and the compound E or the compound 3) was directly subjected to light irradiation outside of the mouse body. The reaction mixture was analyzed by using a MALDI-TOF MS, and then subjected to ZipTip treatment for analysis. The percentage of oxygenation ratio was calculated from the percentage of oxygenation ratio under the skin and the oxygenation ratio outside of the skin “[oxygenation ratio under mouse skin/oxygenation ratio outside of mouse skin]×100”."}}}
{"smiles": "O=C(O)CCCCCN1CCCc2cc(/C=C/C3=[O+][B-](F)(C(F)(F)C(F)(F)F)OC(/C=C/c4cc5c6c(c4)CCCN6CCC5)=C3Br)ccc21", "note": "(centres unmarked) [Compound E]", "values": [{"measurement": "oxygenation of N-benzoyl-Met", "setting": "[1]", "value": "accelerated as the viscosity of the solvent was higher"}, {"measurement": "Maximum wavelength λmax (nm)", "setting": "[2]", "value": 639, "unit": "nm"}, {"measurement": "toxicity under light irradiation (ranking)", "setting": "PC 12 cells", "value": "the lowest"}, {"measurement": "oxygenation reaction rate of furfuryl alcohol", "setting": "[3]", "value": "higher as the viscosity of the solvent was higher"}, {"measurement": "stability of catalyst (ranking)", "setting": "[4]", "value": "stability was higher"}, {"measurement": "oxygenation rate of somatostatin", "setting": "somatostatin (Sst)", "value": "lower than 5%"}, {"measurement": "oxygenation rate of angiotensin-IV", "setting": "angiotensin-IV (AT4)", "value": "lower than 5%"}, {"measurement": "oxygenation of pre-aggregated Aβ peptide", "setting": "Aβ peptide", "value": 44, "unit": "%"}, {"measurement": "oxygenation rate of Met-enkephalin", "setting": "Met-enkephalin (ME)", "value": "lower than 5%"}, {"measurement": "oxygenation of Aβ1-42 under light irradiation", "setting": "Aβ1-42 [5]", "value": "oxygenation of the Aβ proceeded"}, {"measurement": "percentage of oxygenation ratios [oxygenation ratio under mouse skin/oxygenation ratio outside of mouse skin]×100", "setting": "Aβ1-42 [6]", "value": 65, "unit": "%"}]}
